Assay results published in patent publication US20100120715A1, “BETA-LACTAMASE INHIBITORS” (priority 2007, published 2010).
Read-outs that look alike come from different tables or passages of the source.

Experiments:
[1] = biological target: T1, Class A carbapenemase KPC-2 (Klebsiella pneumoniae, UniProt Q9F663); experiment: β-lactamase enzyme inhibition (nitrocefin hydrolysis), KPC-2; type: biochemical; conditions: purified enzyme; nitrocefin 100 μM, PBS pH 7.0; read-out: KPC-2 IC50 Range
T1 construct: made in house; host or cells: E. coli BL21(DE3)
Procedure: (§1) Isolation of β-lactamases. For all examples, purified beta-lactamase enzymes were used to measure a compounds' ability to inhibit the Class A ESBL CTXM-15, the Class C P99 AmpC and the Class A carbapenemase KPC-2. […] The enzyme preparations are described herein.
(§2) For the isolation and purification of SHV-5, p99 AmpC, KPC-2 and CTX-M15 β-lactamases, E. coli BL21(DE3) bacterial cells carrying expression plasmids (expressed as native untagged proteins) for the individual β-lactamases were grown in 1 L of Superbroth (Teknova Inc. Hollister, Calif.) supplemented with 100 μg/ml kanamycin and 1×5052 (0.5% glycerol, 0.05% glucose and 0.2% α-lactose) at 35° C. for 18-20 hours. Cells were harvested by centrifugation (4,000×g, 4° C., 20 min), and resuspended in 50 ml of 10 mM HEPES pH 7.5 ( 1/20 of the initial volume). The cells were lysed by sonication (5 pulses of 45 seconds) at 45 W on ice. The lysates were clarified by centrifugation at 10,000×g for 40 minutes at 4° C. Samples were diluted 5-fold in 50 mM sodium acetate pH 5.0, stored overnight at 4° C., after which they were centrifuged at 10,000×g for 30 minutes to clarify, and filtered through 0.45 μm filters. The samples were loaded onto a 5 ml Capto S sepharose cation exchange column (GE Healthcare) pre-equilibrated with 50 mM sodium acetate pH 5.0. The column was washed with 5 column volumes of 50 mM sodium acetate pH 5.0 to wash out unbound protein and a linear gradient of NaCl (0 to 500 mM) was used to elute the protein (over 16 CV) from the column. Fractions were assayed for β-lactamase activity using Centa (Calbiochem, Gibbstown, N.J.) as a reporter β-lactamase substrate for activity in the isolated fractions. Active fractions were pooled, concentrated and further purified by gel filtration chromatography on a Superdex 75 prep grade gel filtration column (GE Healthcare, Piscataway, N.J.) pre-equilibrated in 50 mM Hepes pH 7.5, 150 mM NaCl. Active fractions were pooled concentrated, quantitated by BCA protein determination (Thermo Scientific, Rockford, Ill.), and frozen at −80° C. in 20% glycerol until use.
(§3) β-lactamase Inhibition. To determine the level of inhibition of β-lactamaseenzymes, compounds were diluted in PBS at pH 7.0 to yield concentrations between 100 and 0.005 μM in microtiter plates. An equal volume of diluted enzyme stock was added, and the plates were incubated at 37° C. for 10 min. Nitrocefin solution was then dispensed as substrate into each well at a final concentration of 100 μM, and the plates were immediately read with the kinetic program at 486 nm for 10 min on the SPECTRAMAX® Plus^384 (high-throughput microplate spectrophotometer; Molecular Devices Corp., Sunnyvale, Calif.). Maximum rates of metabolism were then compared to those in control wells (without inhibitors), and percentages of enzyme inhibition were calculated for each concentration of inhibitor. The concentration of inhibitor needed to reduce the initial rate of hydrolysis of substrate by 50% (IC50) was calculated as the residual activity of β-lactamase at 486 nm using the SoftMax Pro 5.0 software (Molecular Devices Corp.).

[2] = tested on: E. coli expressing the Class A ESBL SHV-5; experiment: microbe, parasite or virus in culture; type: cell-based; conditions: in the presence of fixed 8 μg/mL Ceftazidime
Source text: (§4) To determine the ability of test compounds to potentiate the inhibition of the growth of bacterial strains producing beta-lactamase enzymes, classic cell based screening assays were employed. Four bacteria strains producing beta-lactamase enzymes were used: K. pneumoniae expressing the Class A Extended Spectrum Beta-Lactamase (ESBL) CTX-M-15, E. coli expressing the Class A ESBL SHV-5, E. cloacae expressing the Class C P99+, and K. pneumoniae expressing the Class A carbapenemase KPC-2. In order to evaluate the ability of test compounds to inhibit beta-lactamase activity, Applicants used a modification of the broth microdilution assay. The assay was conducted in Cation Adjusted Mueller Hinton Broth (CAMHB, BD # 212322, BD Diagnostic Systems, Sparks, Md.). Bacteria strains were grown for 3-5 hours in CAMBH broth. All four strains were grown in presence of 50 μg/mL ampicillin to ensure resistance is maintained. In the meantime, test compounds were diluted in DMSO to a 0.1 mg/mL stock. The compounds were added to a microtiter plate and were diluted in 2-fold serial dilutions in CAMHB in a final concentration range of 8 μg/mL to 0.015 μg/ml. An overlay of CAMHB containing a cephalosporin was added to the compounds at a final static concentration of 8 μg/ml. […] Each of these compound plates are made in quadruplicate, one for each bacteria strain. In addition to the titration of test compounds the MICs of a panel of cephalosporins is also tested to ensure the strains are behaving consistently from test to test. Once the test compound and cephalosporin are added the plates can be inoculated. Inocula are conducted according to CLSI broth microdilution method. After inoculation the plates are incubated for 16-20 hours at 37° C. then the Minimal Inhibitory Concentration (MIC) of the test compound is determined visually.

[3] = biological target: T2, Class A ESBL CTXM-15 (Escherichia coli, UniProt Q9EXV5); experiment: β-lactamase enzyme inhibition (nitrocefin hydrolysis), CTXM-15; type: biochemical; conditions: purified enzyme; nitrocefin 100 μM, PBS pH 7.0; read-out: CTXM-15 IC50 Range
T2 construct: made in house; host or cells: E. coli BL21(DE3)
Procedure: as §1, §2, §3

[4] = biological target: T3, Class C P99 AmpC (Enterobacter cloacae, UniProt P05364); type: biochemical; conditions: purified enzyme; nitrocefin 100 μM, PBS pH 7.0; read-out: P99 AmpC IC50 Range
T3 construct: made in house; host or cells: E. coli BL21(DE3)
Procedure: as §1, §2, §3

[5] = biological target: T4, Class A ESBL SHV-5 (Klebsiella pneumoniae, UniProt P0A3M1); type: biochemical, E. coli; conditions: nitrocefin 100 μM, PBS pH 7.0, read-out: SHV-5 IC50 Range
T4 construct: made in house; host or cells: E. coli BL21(DE3) for purified enzyme; E. coli cells containing SHV-5 for extracts
Procedure: as §1
For the preparation of SHV-5 extracts, E. coli cells containing SHV-5 were cultured overnight with shaking at a volume of 20 mL. They were further diluted 10-fold and grown to mid-log phase (OD at 600 nm, 0.5-0.8) in Mueller-Hinton II (MH-II) broth at 37° C. The cells were pelleted at 5000 g, washed and resuspended in 2 mL PBS pH 7.0. The β-lactamase was extracted by four cycles of freezing and thawing followed by centrifugation. β-lactamase activity in the extract was measured with the chromogenic cephalosporin nitrocefin. The amount of protein in each β-lactamase preparation was determined by the bicinchoninic acid (BCA) assay.
as §2, §3

[6] = tested on: K. pneumoniae expressing the Class A carbapenemase KPC-2; experiment: microbe, parasite or virus in culture; conditions: in the presence of fixed 8 μg/mL Ceftazidime
Source text: as §4

[7] = tested on: K. pneumoniae expressing the Class A ESBL CTX-M-15; experiment: microbe, parasite or virus in culture; type: cell-based; conditions: in the presence of fixed 8 μg/mL Ceftazidime
Source text: as §4, with “An overlay of CAMHB containing a cephalosporin was added to the compounds at a final static concentration of 8 μg/ml.” left out

[8] = purified beta-lactamase enzyme (Examples 1 and 31-64)
[9] = cellular extracts of E. coli containing SHV-5 (Examples 2-30)

T3 sequence (P05364 21-381): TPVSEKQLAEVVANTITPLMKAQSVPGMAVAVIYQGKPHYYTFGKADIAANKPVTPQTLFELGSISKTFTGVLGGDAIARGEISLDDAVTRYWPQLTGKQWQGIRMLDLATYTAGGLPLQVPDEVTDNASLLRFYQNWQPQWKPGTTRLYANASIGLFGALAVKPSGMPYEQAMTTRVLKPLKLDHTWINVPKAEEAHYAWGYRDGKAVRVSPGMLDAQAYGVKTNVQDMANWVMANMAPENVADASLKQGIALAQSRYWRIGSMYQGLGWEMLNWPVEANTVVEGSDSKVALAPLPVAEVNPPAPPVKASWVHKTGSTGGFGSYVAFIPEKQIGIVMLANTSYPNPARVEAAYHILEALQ
T4 sequence (P0A3M1 22-286): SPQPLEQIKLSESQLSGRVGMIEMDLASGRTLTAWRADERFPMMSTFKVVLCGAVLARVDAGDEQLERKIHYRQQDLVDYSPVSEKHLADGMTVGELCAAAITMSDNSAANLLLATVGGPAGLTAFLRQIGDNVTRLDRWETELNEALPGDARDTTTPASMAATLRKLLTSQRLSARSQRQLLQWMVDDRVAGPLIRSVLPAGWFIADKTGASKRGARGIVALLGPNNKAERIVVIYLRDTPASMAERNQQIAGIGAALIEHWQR
T1 sequence (Q9F663 25-293 limits assumed): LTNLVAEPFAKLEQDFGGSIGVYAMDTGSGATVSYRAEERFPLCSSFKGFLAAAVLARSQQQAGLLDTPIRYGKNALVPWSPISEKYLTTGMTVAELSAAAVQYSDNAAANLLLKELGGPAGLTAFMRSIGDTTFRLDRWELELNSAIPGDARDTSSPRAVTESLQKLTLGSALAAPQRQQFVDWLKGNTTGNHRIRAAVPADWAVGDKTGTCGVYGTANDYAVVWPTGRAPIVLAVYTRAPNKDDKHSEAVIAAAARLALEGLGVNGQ
T2 sequence (Q9EXV5 entry or part of it): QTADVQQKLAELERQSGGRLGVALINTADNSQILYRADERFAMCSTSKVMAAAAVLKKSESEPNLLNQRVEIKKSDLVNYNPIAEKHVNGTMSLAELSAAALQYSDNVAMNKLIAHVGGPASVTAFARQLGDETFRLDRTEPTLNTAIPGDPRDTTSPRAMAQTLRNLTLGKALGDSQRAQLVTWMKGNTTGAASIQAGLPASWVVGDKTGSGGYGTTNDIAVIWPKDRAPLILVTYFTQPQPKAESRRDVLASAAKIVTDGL

In the case of `O=C(N[C@@H](Cc1cccc(C(=O)O)c1O)B(O)O)c1ccc(N2CCOCC2)nc1` [Example 48, (1R)-1-(6-morpholin-4-yl-pyridine-3-carbonyl)-amino-1-(3-carboxy-2-hydroxy)benzyl-methylboronic acid], the IC50 [1] is reported as less than 10 nM, the “MIC of example compound, E. coli SHV-5 + 8 μg/mL CAZ” value [2] is reported as “A (A represents an MIC >8 μg/mL)” and the IC50 [3] is reported as less than 10 nM. The IC50 [4] was 10 to 100 nM, the IC50 [5, 8] was 100 to 1000 nM and the “MIC of example compound, K. pneumoniae KPC-2 + 8 μg/mL CAZ” value (shortened to “MIC … K. pneumoniae KPC-2 + 8 μg/mL CAZ”) [6] was “C (C represents an MIC of <1 μg/mL)”.
In the case of `O=C(Cc1ccccn1)N[C@@H](Cc1cccc(C(=O)O)c1O)B(O)O.O=CO` [Example 61, (1R)-1-(2-Pyridylacetylamino)-2-(2-hydroxy-3-carboxyphenyl)ethyl-1-boronic acid formate salt], the IC50 [1] is reported as 10 to 100 nM, the IC50 [3] is reported as less than 10 nM and the “MIC of example compound, K. pneumoniae CTX-M-15 + 8 μg/mL CAZ” value (shortened to “MIC … K. pneumoniae CTX-M-15 + 8 μg/mL CAZ”) [7] is reported as “C (C represents an MIC of <1 μg/mL)”. The IC50 [4] was less than 10 nM, the IC50 [5, 8] was less than 10 nM and the “MIC … K. pneumoniae KPC-2 + 8 μg/mL CAZ” value [6] was “C (C represents an MIC of <1 μg/mL)”.
For `CC(C)(C)CC(=O)N[C@@H](Cc1cccc(C(=O)O)c1O)B(O)O` [Example 25, (1R)-1-(3,3-Dimethyl-butyrylamino)-(3-carboxy-2-hydroxy)benzyl-methylboronic acid], the IC50 [1] was 10 to 100 nM, the IC50 [3] was 10 to 100 nM and the “MIC … K. pneumoniae CTX-M-15 + 8 μg/mL CAZ” value [7] was “C (C represents an MIC of <1 μg/mL)”. The IC50 [4] was 10 to 100 nM, the IC50 [5, 9] was 10 to 100 nM and the “MIC … K. pneumoniae KPC-2 + 8 μg/mL CAZ” value [6] was “C (C represents an MIC of <1 μg/mL)”.
For `O=C(COCc1ccccc1)N[C@@H](Cc1cccc(C(=O)O)c1O)B(O)O` [Example 22, (1R)-1-(2-benzyloxyacetylamino)-2-(2-hydroxy-3-carboxyphenyl)ethyl-1-boronic acid], the IC50 [1] was less than 10 nM, the IC50 [3] was less than 10 nM and the “MIC … K. pneumoniae CTX-M-15 + 8 μg/mL CAZ” value [7] was “C (C represents an MIC of <1 μg/mL)”. For the same compound, the IC50 [4] was 10 to 100 nM, the IC50 [5, 9] was less than 10 nM and the “MIC … K. pneumoniae KPC-2 + 8 μg/mL CAZ” value [6] was “C (C represents an MIC of <1 μg/mL)”.
In the case of `O=C(Cn1cccn1)N[C@@H](Cc1cccc(C(=O)O)c1O)B(O)O` [Example 40, (1R)-1-(Pyrazol-1-yl-acetylamino)-2-(2-hydroxy-3-carboxyphenyl)ethyl-1-boronic acid], the IC50 [1] is reported as 10 to 100 nM, the IC50 [3] is reported as 10 to 100 nM and the “MIC … K. pneumoniae CTX-M-15 + 8 μg/mL CAZ” value [7] is reported as “C (C represents an MIC of <1 μg/mL)”. For the same compound, the IC50 [4] was 10 to 100 nM, the IC50 [5, 8] was 10 to 100 nM and the “MIC … K. pneumoniae KPC-2 + 8 μg/mL CAZ” value [6] was “C (C represents an MIC of <1 μg/mL)”.
With `Cn1ccc(C(=O)N[C@@H](Cc2cccc(C(=O)O)c2O)B(O)O)n1` [Example 53, (1R)-1-(1-Methyl-1H-pyrazole-3-carbonyl-amino)-2-(2-hydroxy-3-carboxyphenyl)ethyl-1-boronic acid] the IC50 [1] was less than 10 nM, the IC50 [3] was less than 10 nM and the “MIC … K. pneumoniae CTX-M-15 + 8 μg/mL CAZ” value [7] was “C (C represents an MIC of <1 μg/mL)”. For the same compound, the IC50 [4] was less than 10 nM, the IC50 [5, 8] was 100 to 1000 nM and the “MIC … K. pneumoniae KPC-2 + 8 μg/mL CAZ” value [6] was “C (C represents an MIC of <1 μg/mL)”.
`CCCCCCC(=O)N[C@@H](Cc1cccc(C(=O)O)c1O)B(O)O` [Example 24, (1R)-1-(heptanoylamino)-2-(2-hydroxy-3-carboxyphenyl)ethyl-1-boronic acid] was tested, and the IC50 [1] was 10 to 100 nM, the IC50 [3] was less than 10 nM and the “MIC … K. pneumoniae CTX-M-15 + 8 μg/mL CAZ” value [7] was “C (C represents an MIC of <1 μg/mL)”. For the same compound, the IC50 [4] was less than 10 nM, the IC50 [5, 9] was less than 10 nM and the “MIC … K. pneumoniae KPC-2 + 8 μg/mL CAZ” value [6] was “C (C represents an MIC of <1 μg/mL)”.
For `O=C(N[C@@H](Cc1cccc(C(=O)O)c1O)B(O)O)c1ccc(Cl)nc1` [Example 31, (1R)-1-(6-Chloro-pyridine-3-carbonyl)-amino-1-(3-carboxy-2-hydroxy)benzyl-methylboronic acid], the IC50 [1] was less than 10 nM, the IC50 [3] was less than 10 nM and the “MIC … K. pneumoniae CTX-M-15 + 8 μg/mL CAZ” value [7] was “C (C represents an MIC of <1 μg/mL)”. For the same compound, the IC50 [4] was less than 10 nM, the IC50 [5, 8] was less than 10 nM and the “MIC … K. pneumoniae KPC-2 + 8 μg/mL CAZ” value [6] was “C (C represents an MIC of <1 μg/mL)”.
For `CS(=O)(=O)c1ccc(CC(=O)N[C@@H](Cc2cccc(C(=O)O)c2O)B(O)O)cc1` [Example 62, (1R)-1-(2-(4-(methylsulfonyl)phenyl)-acetylamino)-2-(2-hydroxy-3-carboxyphenyl)ethyl-1-boronic acid], the IC50 [1] was less than 10 nM, the IC50 [3] was less than 10 nM and the “MIC … K. pneumoniae CTX-M-15 + 8 μg/mL CAZ” value [7] was “C (C represents an MIC of <1 μg/mL)”. For the same compound, the IC50 [4] was less than 10 nM, the IC50 [5, 8] was less than 10 nM and the “MIC … K. pneumoniae KPC-2 + 8 μg/mL CAZ” value [6] was “C (C represents an MIC of <1 μg/mL)”.
